≈ marks a conversion by molar mass, not a printed value. Where two headings read alike, the source gives them in different places.
Legend:
[1] = comparable conditions, 1 M salt solution, cited from earlier work
[2] = test system: Mouse macrophages J774A.1; assay: Membrane permeabilization assay (propidium iodide uptake); format: cell-based; settings: LPPOs 10 mg/L, melittin 10 μM
Method: Mouse macrophages J774A.1 (ATCC, number TIB-67) were cultured at 37°C in a humidified air/CO2 (19:1) atmosphere in RPMI medium supplemented with 10% (v/v) heat-inactivated fetal bovine serum, penicillin (100 IU/ml), streptomycin (100 mg/L), and amphotericin B (250 μg/L). For fluorescence measurements, cells were mechanically harvested, seeded on glass coverslips in 6-well plates, and grown to 30% confluence (about 2x10^5 cells). Cells grown on coverslips were washed in modified HBSS solution (140 mM NaCl, 5 mM KCl, 2 mM CaCl2, 3 mM MgCl2, 10 mM HEPES-Na, 50 mM glucose, pH 7.4) and promptly mounted into custom-made polypropylene holder which was placed horizontally into a quartz cuvette filled with HBSS containing 10 μM PI. The uptake of PI was observed as fluorescence increase using identical setting as with bacterial cells (see above). The observed area of the coverslip was about 10 mm^2, corresponding to approximately 10^4 cells.

B. subtilis 168 = assay: Selection for resistant strains, stepwise two-fold increased concentration; format: cell-based, Bacillus subtilis; settings: 24 h cultures, two-fold increased concentration each transfer; rifampicin from 0.01 mg/L, DR5026 from 0.5 mg/L
Method: A) B. subtilis. […] Then, the growth of the culture was evaluated by OD600nm and an aliquot of the culture was transferred to a new tube with fresh medium and a two-fold increased concentration of the active compound. This template was followed until no growth was detected for DR5026 or until B. subtilis grew at 5 mg/L of rifampicin.

Bacillus subtilis = assay: MIC, standard microdilution method

For alamethicin, the channel conductance ([1]; no reference given) is given as “ca. 600 pS”.
In the case of gramicidin A, the channel conductance [1] is given as “ca. 20 pS”.
In the case of melittin, the “effect on cytoplasmic membrane permeability (PI uptake)” value [2] is reported as “did so”.
In the case of `CO[C@H]1/C=C/O[C@@]2(C)Oc3c(C)c(O)c4c(O)c(c(/C=N/N5CCN(C)CC5)c(O)c4c3C2=O)NC(=O)/C(C)=C\C=C\[C@H](C)[C@H](O)[C@@H](C)[C@@H](O)[C@@H](C)[C@H](OC(C)=O)[C@@H]1C` [rifampicin, reference compound], the development of resistance (B. subtilis 168) is reported as “able to obtain cells growing in the presence of 5 mg/L of rifampicin”, the “MIC against wt B. subtilis” value (Bacillus subtilis; B. subtilis 168, as stated for the resistance selection experiment) is reported as 0.06 mg/L (≈ 0.0729 µM) and the MIC (Bacillus subtilis; Bacillus subtilis, read-out: MIC against wt B. subtilis, B. subtilis 168, as stated for the resistance selection experiment) is reported as ~0.06 µg/mL (≈ 0.0729 µM).

Reference: publication PMC4696656, “Insights into the Mechanism of Action of Bactericidal Lipophosphonoxins” (PLoS ONE, 2015)
